EP4745135A1 (Gluetacs Therapeutics (Shanghai) Co., Ltd., priority 2023, dated 2025)
pIC50: −log10 of the molar value.

How the values were obtained:
[1] = system: Human breast cancer cell (MCF-7); test: Tumor cell proliferation inhibition (CellTiter-Meiluncell luminescent cell viability assay); details: MCF7, 96 h; for inhibition at 0.01 µM: read-out: Inhibition Rate at 10 nM (%); for inhibition at 0.5 µM: read-out: Inhibition Rate at 500 nM (%)
[2] = system: Human myeloid monocytic leukemia cell (MV-4-11); test: as above; details: MV4-11, 96 h; for inhibition at 0.01 µM: read-out: Inhibition Rate at 10 nM (%); for inhibition at 0.5 µM: read-out: Inhibition Rate at 500 nM (%)
[3] = target: T1, human Cereblon WT GST-tagged protein (Homo sapiens, UniProt Q96SW2); test: CRBN-binding affinity, HTRF (CEREBLON BINDING kit); details: for inhibition at 0.5 µM: read-out: Inhibition Rate at 0.5 µM (%); for inhibition at 2 µM: read-out: Inhibition Rate at 2 µM (%)
T1 construct: purchased CISBIO 64BDCRBNPEH

[4] = system: Human acute myeloid leukemia cell line: Kasumi-1; test: Tumor cell proliferation inhibition (CellTiter-Meiluncell luminescent cell viability assay); details: Kasumi 1, 96 h; for inhibition at 0.01 µM: read-out: Inhibition Rate at 10 nM (%); for inhibition at 0.5 µM: read-out: Inhibition Rate at 500 nM (%)
Procedure: (§1) The tumor cells used herein were cultured in a cell culture medium listed in table 2 at 37°C in an incubator with 5% CO2. Prior to experimentation, all cell lines used were correctly identified by STR profiling, and tested negative for mycoplasma contamination using a mycoplasma detection kit through routine screenings.
(§2) The IC50 values of the compounds of the present disclosure (including the compounds in Table 1 and Examples) were determined using the CellTiter-Meiluncell Luminescent Cell Viability Assay Kit from Dalian Meilun Biotech Co., Ltd. The detailed procedure is as follows: Tumor cells were seeded in 96-well cell culture plates at the densities specified in Table 3. On the following day, the test compounds of the present disclosure were subjected to serial dilution. The dilution can be performed according to one of the following two methods: • (1) The first dilution method: The test compounds of the present disclosure (including the compounds in Table 1 and Examples) were subjected to 5-fold serial dilutions starting from a highest concentration of 2000 µM, resulting in a total of 9 concentrations from high to low (2000, 400, 80, 16, 3.2, 0.64, 0.128, 0.0256, 0.00512 µM). Subsequently, 0.5 µL of the test compound dilution was transferred into the 96-well plate containing the cells, with each well containing 100 µL of cell culture medium. […] Into the 96-well plate, the diluted test compounds and corresponding detection reagents were added, resulting in final test compound concentrations of 500 nM and 10 nM, respectively. The experimental procedure is described below using the diluted 2 µM test compound as an example.
(§3) 0.5 µL of the aforementioned diluted compound of the present disclosure (including the compounds in Table 1 and Examples) was added to the seeded cells in 100 µL of medium, yielding a final test compound concentration of 10 nM. After the cells were treated with the compounds of the present disclosure for a specified period, the cell viability assay reagent was added to the culture medium according to the kit's instructions to determine cell viability. […] All controls were treated using the same procedure as the compounds of the present disclosure. The growth inhibition curves for the compounds of the present disclosure were plotted using Prism GraphPad software, and the IC50 values were calculated therefrom.

[5] = system: Human multiple myeloma cell (MM.1S); test: as above; details: Homo sapiens, MM1.S, 96 h; for inhibition at 0.01 µM: read-out: Inhibition Rate at 10 nM (%); for inhibition at 0.5 µM: read-out: Inhibition Rate at 500 nM (%)
GSPT1 = test: Western blot, degradation of substrate protein in hPBMCs; format: cell-based, Human
IKZF2 = target: T2, IKZF2 (Homo sapiens, UniProt Q96SW2+Q9UKS7); test: as above; format: cell-based
T2 construct: effects of the compounds of the present disclosure on the expression of target proteins in cells; endogenous in cells; host or cells: human PBMCs (Milecell Biotechnologies)

WEE1 = target: T3, WEE1 (Homo sapiens, UniProt P30291+Q96SW2); test: as above; format: cell-based
T3 construct: effects of the compounds of the present disclosure on the expression of target proteins in cells; endogenous in cells; host or cells: human PBMCs (Milecell Biotechnologies)

IKZF1 = target: T4, IKZF1 (Homo sapiens, UniProt Q13422+Q96SW2); test: as above; format: cell-based
T4 construct: effects of the compounds of the present disclosure on the expression of target proteins in cells; endogenous in cells; host or cells: human PBMCs (Milecell Biotechnologies)

IKZF3 = target: T5, IKZF3 (Homo sapiens, UniProt Q96SW2+Q9UKT9); test: as above; format: cell-based
T5 construct: effects of the compounds of the present disclosure on the expression of target proteins in cells; endogenous in cells; host or cells: human PBMCs (Milecell Biotechnologies)

CK1α = target: T6, CK1α (Homo sapiens, UniProt P48729+Q96SW2); test: as above; format: cell-based
T6 construct: effects of the compounds of the present disclosure on the expression of target proteins in cells; endogenous in cells; host or cells: human PBMCs (Milecell Biotechnologies)

[6] = system: Human multiple myeloma peripheral blood B lymphocyte cell (RPMI-8226); test: Tumor cell proliferation inhibition (CellTiter-Meiluncell luminescent cell viability assay); details: RPMI-8226, 96 h; for inhibition at 0.01 µM: read-out: Inhibition Rate at 10 nM (%); for inhibition at 0.5 µM: read-out: Inhibition Rate at 500 nM (%)
[7] = system: Human acute T lymphocytic leukemia cell (Molt4); test: as above; details: MOLT-4, 96 h; for inhibition at 0.01 µM: read-out: Inhibition Rate at 10 nM (%); for inhibition at 0.5 µM: read-out: Inhibition Rate at 500 nM (%)
Procedure: as §1, §2, §3

[8] = system: Human T lymphocytic leukemia cell line: Jurkat; test: as above; details: 96 h
[9] = Western blot, 24 hours of compound treatment, compounds tested at 50 nM and 500 nM (concentration for the table not stated)
[10] = 24 hours treatment, compounds at 50 nM and 500 nM (concentration behind the class not stated)

T5 sequence (Q9UKT9 whole entry): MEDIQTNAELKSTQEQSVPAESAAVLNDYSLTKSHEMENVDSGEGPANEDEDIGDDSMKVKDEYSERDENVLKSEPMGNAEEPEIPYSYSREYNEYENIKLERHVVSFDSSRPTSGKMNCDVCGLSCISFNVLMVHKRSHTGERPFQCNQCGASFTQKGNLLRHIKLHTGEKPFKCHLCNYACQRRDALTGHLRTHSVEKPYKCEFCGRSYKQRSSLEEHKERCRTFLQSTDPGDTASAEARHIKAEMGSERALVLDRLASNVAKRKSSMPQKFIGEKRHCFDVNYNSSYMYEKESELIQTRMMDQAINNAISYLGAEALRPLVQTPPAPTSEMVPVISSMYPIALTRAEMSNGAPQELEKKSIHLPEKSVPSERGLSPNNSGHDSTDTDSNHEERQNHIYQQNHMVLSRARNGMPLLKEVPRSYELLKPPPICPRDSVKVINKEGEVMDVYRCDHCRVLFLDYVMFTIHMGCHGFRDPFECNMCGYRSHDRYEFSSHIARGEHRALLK
T5 sequence (Q96SW2 whole entry): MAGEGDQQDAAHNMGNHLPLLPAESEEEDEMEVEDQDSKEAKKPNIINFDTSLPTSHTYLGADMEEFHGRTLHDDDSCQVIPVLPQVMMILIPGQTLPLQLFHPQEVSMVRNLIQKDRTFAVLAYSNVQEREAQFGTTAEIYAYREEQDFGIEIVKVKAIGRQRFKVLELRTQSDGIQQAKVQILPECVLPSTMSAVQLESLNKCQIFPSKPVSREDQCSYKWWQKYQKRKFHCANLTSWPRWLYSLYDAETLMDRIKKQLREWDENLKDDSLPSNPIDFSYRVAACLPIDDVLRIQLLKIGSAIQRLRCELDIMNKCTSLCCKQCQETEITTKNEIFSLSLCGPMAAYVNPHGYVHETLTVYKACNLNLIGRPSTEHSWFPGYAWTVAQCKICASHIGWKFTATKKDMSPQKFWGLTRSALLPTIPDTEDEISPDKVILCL
T5 sequence (Q16531 whole entry partner): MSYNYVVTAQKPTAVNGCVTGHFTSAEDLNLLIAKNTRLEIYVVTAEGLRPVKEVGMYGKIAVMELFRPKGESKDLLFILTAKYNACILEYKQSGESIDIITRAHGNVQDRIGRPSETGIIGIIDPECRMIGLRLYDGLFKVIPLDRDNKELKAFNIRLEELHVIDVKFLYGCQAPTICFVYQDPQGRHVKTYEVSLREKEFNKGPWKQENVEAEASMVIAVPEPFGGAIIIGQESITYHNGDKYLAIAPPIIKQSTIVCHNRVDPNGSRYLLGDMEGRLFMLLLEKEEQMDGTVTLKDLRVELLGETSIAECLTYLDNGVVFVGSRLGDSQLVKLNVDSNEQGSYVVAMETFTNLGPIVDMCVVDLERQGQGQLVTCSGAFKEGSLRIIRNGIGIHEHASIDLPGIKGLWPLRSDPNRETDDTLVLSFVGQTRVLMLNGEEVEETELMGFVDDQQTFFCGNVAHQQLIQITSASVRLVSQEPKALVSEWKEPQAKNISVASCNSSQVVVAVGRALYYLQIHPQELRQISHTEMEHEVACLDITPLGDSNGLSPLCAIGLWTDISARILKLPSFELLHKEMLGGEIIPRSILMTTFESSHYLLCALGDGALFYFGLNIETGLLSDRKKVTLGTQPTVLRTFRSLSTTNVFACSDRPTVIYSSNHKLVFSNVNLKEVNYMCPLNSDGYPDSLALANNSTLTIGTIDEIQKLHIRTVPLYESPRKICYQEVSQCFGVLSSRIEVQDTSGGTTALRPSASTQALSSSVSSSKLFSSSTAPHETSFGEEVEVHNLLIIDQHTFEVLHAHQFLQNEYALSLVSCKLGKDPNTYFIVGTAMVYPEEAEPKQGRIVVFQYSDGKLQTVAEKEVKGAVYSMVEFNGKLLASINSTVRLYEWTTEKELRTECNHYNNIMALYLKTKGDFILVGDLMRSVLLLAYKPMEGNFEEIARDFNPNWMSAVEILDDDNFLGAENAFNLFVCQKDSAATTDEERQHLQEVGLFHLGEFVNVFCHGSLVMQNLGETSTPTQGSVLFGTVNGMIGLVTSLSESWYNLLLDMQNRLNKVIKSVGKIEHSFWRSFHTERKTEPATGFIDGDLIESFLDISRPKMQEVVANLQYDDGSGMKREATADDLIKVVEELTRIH
T2 sequence (Q9UKS7 whole entry): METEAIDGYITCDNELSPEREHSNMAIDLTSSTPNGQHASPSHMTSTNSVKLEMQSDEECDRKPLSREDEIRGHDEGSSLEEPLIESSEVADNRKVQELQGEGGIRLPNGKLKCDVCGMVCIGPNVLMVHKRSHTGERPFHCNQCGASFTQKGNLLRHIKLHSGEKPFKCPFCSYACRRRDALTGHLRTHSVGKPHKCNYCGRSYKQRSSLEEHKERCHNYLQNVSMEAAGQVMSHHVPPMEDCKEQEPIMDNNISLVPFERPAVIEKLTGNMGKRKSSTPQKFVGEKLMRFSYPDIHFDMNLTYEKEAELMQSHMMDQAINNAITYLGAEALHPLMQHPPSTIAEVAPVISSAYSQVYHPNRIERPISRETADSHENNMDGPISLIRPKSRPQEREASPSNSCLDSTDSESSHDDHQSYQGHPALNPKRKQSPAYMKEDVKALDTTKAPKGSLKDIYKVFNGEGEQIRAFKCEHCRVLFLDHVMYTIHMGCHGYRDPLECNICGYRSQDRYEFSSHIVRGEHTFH
T2 sequence (Q96SW2 whole entry): as the sequence (Q96SW2 whole entry) above
T2 sequence (Q16531 whole entry partner): as the sequence (Q16531 whole entry partner) above
T1 sequence (Q96SW2 whole entry): as the sequence (Q96SW2 whole entry) above
T3 sequence (P30291 whole entry): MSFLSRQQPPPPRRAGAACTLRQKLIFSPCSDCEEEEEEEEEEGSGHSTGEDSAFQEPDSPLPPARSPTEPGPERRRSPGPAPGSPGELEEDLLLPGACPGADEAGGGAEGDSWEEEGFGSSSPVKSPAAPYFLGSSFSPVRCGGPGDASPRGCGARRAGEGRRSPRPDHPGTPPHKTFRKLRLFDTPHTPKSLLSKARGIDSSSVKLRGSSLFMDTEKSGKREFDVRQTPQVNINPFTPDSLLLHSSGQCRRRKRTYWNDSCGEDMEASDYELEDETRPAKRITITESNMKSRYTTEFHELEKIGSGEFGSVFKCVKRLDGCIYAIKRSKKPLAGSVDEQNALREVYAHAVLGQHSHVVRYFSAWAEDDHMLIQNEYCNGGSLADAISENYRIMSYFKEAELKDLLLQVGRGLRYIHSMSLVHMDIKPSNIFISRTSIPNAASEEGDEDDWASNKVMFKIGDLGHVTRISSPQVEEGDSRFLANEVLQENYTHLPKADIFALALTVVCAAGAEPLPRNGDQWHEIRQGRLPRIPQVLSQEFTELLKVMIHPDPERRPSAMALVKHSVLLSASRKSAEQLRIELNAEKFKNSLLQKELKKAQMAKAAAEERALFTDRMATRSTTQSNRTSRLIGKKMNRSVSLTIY
T3 sequence (Q96SW2 whole entry): as the sequence (Q96SW2 whole entry) above
T3 sequence (Q16531 whole entry partner): as the sequence (Q16531 whole entry partner) above
T4 sequence (Q13422 whole entry): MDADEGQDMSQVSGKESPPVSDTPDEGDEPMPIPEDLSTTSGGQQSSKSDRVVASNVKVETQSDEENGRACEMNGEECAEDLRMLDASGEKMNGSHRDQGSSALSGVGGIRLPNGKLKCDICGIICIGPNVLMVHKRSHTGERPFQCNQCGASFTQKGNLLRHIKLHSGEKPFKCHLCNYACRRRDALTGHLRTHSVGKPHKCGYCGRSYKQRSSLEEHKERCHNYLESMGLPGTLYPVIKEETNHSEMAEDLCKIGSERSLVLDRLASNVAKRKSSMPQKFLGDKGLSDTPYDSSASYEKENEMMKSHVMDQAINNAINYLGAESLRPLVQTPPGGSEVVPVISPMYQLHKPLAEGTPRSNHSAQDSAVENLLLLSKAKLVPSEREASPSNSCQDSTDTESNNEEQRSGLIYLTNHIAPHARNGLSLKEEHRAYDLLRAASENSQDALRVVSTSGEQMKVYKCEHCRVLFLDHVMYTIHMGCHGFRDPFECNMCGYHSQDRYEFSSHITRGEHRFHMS
T4 sequence (Q96SW2 whole entry): as the sequence (Q96SW2 whole entry) above
T4 sequence (Q16531 whole entry partner): as the sequence (Q16531 whole entry partner) above
T6 sequence (P48729 whole entry): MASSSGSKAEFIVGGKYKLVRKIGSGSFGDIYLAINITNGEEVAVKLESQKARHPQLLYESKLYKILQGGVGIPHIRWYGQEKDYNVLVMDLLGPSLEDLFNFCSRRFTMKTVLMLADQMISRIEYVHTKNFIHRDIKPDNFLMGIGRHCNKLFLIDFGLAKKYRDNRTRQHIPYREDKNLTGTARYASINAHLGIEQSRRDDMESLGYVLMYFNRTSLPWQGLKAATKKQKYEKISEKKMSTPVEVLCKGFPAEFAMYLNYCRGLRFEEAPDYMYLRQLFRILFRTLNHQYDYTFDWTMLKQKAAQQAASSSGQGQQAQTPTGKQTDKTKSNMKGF
T6 sequence (Q96SW2 whole entry): as the sequence (Q96SW2 whole entry) above
T6 sequence (Q16531 whole entry partner): as the sequence (Q16531 whole entry partner) above

Row | SMILES | inhibition at 0.01 µM [1] [%] | inhibition at 0.5 µM [1] [%] | inhibition at 0.01 µM [2] [%] | inhibition at 0.5 µM [2] [%] | inhibition at 0.5 µM [3] [%] | inhibition at 2 µM [3] [%] | inhibition at 0.01 µM [4] [%] | inhibition at 0.5 µM [4] [%] | inhibition at 0.01 µM [5] [%] | inhibition at 0.5 µM [5] [%] | GSPT1 substrate protein remaining % (GSPT1; [9]) | IKZF2 substrate protein remaining % (IKZF2; [9]) | Wee1 substrate protein remaining % (WEE1; [9]) | IKZF 1 substrate protein remaining % (IKZF1; [9]) | IKZF3 substrate protein remaining % (IKZF3; [9]) | CK1α substrate protein remaining % (CK1α; [9]) | inhibition at 0.01 µM [6] [%] | inhibition at 0.5 µM [6] [%] | inhibition at 0.01 µM [7] [%] | inhibition at 0.5 µM [7] [%] | also measured
1 | O=C1CCC(N2Cc3c(CN4CCN(c5ccc(Cl)cc5)CC4)cccc3C2=S)C(=O)N1 (stereo not drawn) [GT-08266, 3-(4-((4-(4-chlorophenyl)piperazin-1-yl)methyl)-1-thioxoisoindolin-2-yl)piperidine-2,6-dione] | 40 to 50 | 40 to 50 | 60 to 80 | 80 to 100 | 30 to 40 | 60 to 80 | 50 to 60 | 50 to 60 | 40 to 50 | 50 to 60 | A (0% ≤ substrate protein remaining % ≤ 80%) | B (80%< substrate protein remaining %≤ 100%) | A (0% ≤ substrate protein remaining % ≤ 80%) | B (80%< substrate protein remaining %≤ 100%) | B (80%< substrate protein remaining %≤ 100%) | B (80%< substrate protein remaining %≤ 100%) |  |  |  |  | 
2 | O=C1CCC(N2Cc3cc(CN4CC=C(c5n[nH]c6cc(F)ccc56)CC4)ccc3C2=S)C(=O)N1 (stereo not drawn) [GT-09270, 3-(5-((4-(6-fluoro-1H-indazol-3-yl)-3,6-dihydropyridin-1(2H)-yl)methyl)-1-thioxoisoindolin-2-yl)piperidine-2,6-dione] | 10 to 20 | 70 to 80 | 80 to 100 | 80 to 100 | 60 to 80 | 80 to 100 |  |  | 50 to 60 | 80 to 100 |  |  |  |  |  |  | 20 to 30 | 70 to 80 | 70 to 80 | 80 to 100 | GSPT1 substrate protein remaining % (GSPT1; [10]): B (80%< substrate protein remaining %≤ 100%); IKZF2 substrate protein remaining % (IKZF2; [10]): B (80%< substrate protein remaining %≤ 100%); Wee1 substrate protein remaining % (WEE1; [10]): A (0% ≤ substrate protein remaining % ≤ 80%); IKZF 1 substrate protein remaining % (IKZF1; [10]): A (0% ≤ substrate protein remaining % ≤ 80%); IKZF3 substrate protein remaining % (IKZF3; [10]): B (80%< substrate protein remaining %≤ 100%); CK1α substrate protein remaining % (CK1α; [10]): A (0% ≤ substrate protein remaining % ≤ 80%)
3 | O=C1CCC(N2Cc3cc(CN4CC=C(c5cccc6c(F)cccc56)CC4)ccc3C2=S)C(=O)N1 (stereo not drawn) [GT-09276, 3-(5-((4-(5-fluoronaphthalen-1-yl)-3,6-dihydropyridin-1(2H)-yl)methyl)-1-thioxoisoindolin-2-yl)piperidine-2,6-dione] | 30 to 40 | 80 to 100 | 80 to 100 | 80 to 100 | 40 to 53 | 80 to 100 |  |  | 70 to 80 | 80 to 100 |  |  |  |  |  |  | 20 to 30 | 70 to 80 | 70 to 80 | 70 to 80 | GSPT1 substrate protein remaining % (GSPT1; [10]): A (0% ≤ substrate protein remaining % ≤ 80%); IKZF2 substrate protein remaining % (IKZF2; [10]): A (0% ≤ substrate protein remaining % ≤ 80%); Wee1 substrate protein remaining % (WEE1; [10]): A (0% ≤ substrate protein remaining % ≤ 80%); IKZF 1 substrate protein remaining % (IKZF1; [10]): B (80%< substrate protein remaining %≤ 100%); IKZF3 substrate protein remaining % (IKZF3; [10]): A (0% ≤ substrate protein remaining % ≤ 80%); CK1α substrate protein remaining % (CK1α; [10]): A (0% ≤ substrate protein remaining % ≤ 80%)
4 | O=C1CCC(N2Cc3c(CN4CCN(c5cccc(F)c5F)CC4)cccc3C2=S)C(=O)N1 (stereo not drawn) [GT-08268, 3-(4-((4-(2,3-difluorophenyl)piperazin-1-yl)methyl)-1-thioxoisoindolin-2-yl)piperidine-2,6-dione] |  |  | 60 to 80 | 60 to 80 | 40 to 53 | 60 to 80 | 50 to 60 | 50 to 60 |  |  | A (0% ≤ substrate protein remaining % ≤ 80%) | B (80%< substrate protein remaining %≤ 100%) | A (0% ≤ substrate protein remaining % ≤ 80%) | B (80%< substrate protein remaining %≤ 100%) | B (80%< substrate protein remaining %≤ 100%) | B (80%< substrate protein remaining %≤ 100%) |  |  |  |  | 
5 | O=C1CCC(N2Cc3cc(CN4CCN(c5cccc(Cl)c5Cl)CC4)ccc3C2=S)C(=O)N1 (stereo not drawn) [GT-04474, 3-(5-((4-(2,3-dichlorophenyl)piperazin-1-yl)methyl)-1-thioxoisoindolin-2-yl)piperidine-2,6-dione] |  |  |  |  |  |  |  |  |  |  | A (0% ≤ substrate protein remaining % ≤ 80%) | A (0% ≤ substrate protein remaining % ≤ 80%) | A (0% ≤ substrate protein remaining % ≤ 80%) | A (0% ≤ substrate protein remaining % ≤ 80%) | A (0% ≤ substrate protein remaining % ≤ 80%) | B (80%< substrate protein remaining %≤ 100%) |  |  |  |  | pIC50 ([3]; CRBN binding, HTRF, 3 hours at room temperature, read-out: HTRF IC50): 6.00 to 6.30; IC50 ([8]; read-out: Inhibitory activity (IC50, nM) on tumor cell proliferation, Jurkat): 50 to 100 nM
6 | O=C1CCC(N2Cc3c(CN4CC=C(c5cccc(F)c5Cl)CC4)cccc3C2=S)C(=O)N1 (stereo not drawn) [GT-08301, 3-(4-((4-(2-chloro-3-fluorophenyl)-3,6-dihydropyridin-1(2H)-yl)methyl)-1-thioxoisoindolin-2-yl)piperidine-2,6-dione] |  |  | 40 to 60 | 40 to 60 |  |  | 50 to 60 | 50 to 60 |  |  | A (0% ≤ substrate protein remaining % ≤ 80%) | B (80%< substrate protein remaining %≤ 100%) | A (0% ≤ substrate protein remaining % ≤ 80%) | B (80%< substrate protein remaining %≤ 100%) | B (80%< substrate protein remaining %≤ 100%) | A (0% ≤ substrate protein remaining % ≤ 80%) |  |  |  |  | inhibition at 0.01 µM ([8]; read-out: Inhibition Rate at 10 nM (%)): 20 to 30%; inhibition at 0.5 µM ([8]; read-out: Inhibition Rate at 500 nM (%)): 30 to 40%
7 | O=C1CCC(N2Cc3cc(CN4CC=C(c5cncc(Cl)c5)CC4)ccc3C2=S)C(=O)N1 (stereo not drawn) [GT-08490, 3-(5-((5-chloro-3',6'-dihydro-[3,4'-bipyridin]-1'(2'H)-yl)methyl)-1-thioxoisoindolin-2-yl)piperidine-2,6-dione] | 30 to 40 | 50 to 60 | 40 to 60 | 80 to 100 | 60 to 80 | 80 to 100 |  |  | 50 to 60 | 80 to 100 | A (0% ≤ substrate protein remaining % ≤ 80%) | A (0% ≤ substrate protein remaining % ≤ 80%) | A (0% ≤ substrate protein remaining % ≤ 80%) | B (80%< substrate protein remaining %≤ 100%) | A (0% ≤ substrate protein remaining % ≤ 80%) | B (80%< substrate protein remaining %≤ 100%) | 20 to 30 | 70 to 80 | 0 to 5 | 80 to 100 | 
